{"source": "patent US9551711B2", "about": "“Compositions and methods for detecting nitration of PKG-1α and methods of use thereof” (Augusta University Research Institute, Inc., priority 2013, dated 2017)", "key": {"[1]": {"test_system": "pulmonary artery smooth muscle cells (PASMC)", "assay": "PASMC cell growth (cell count)", "type": "cell-based, lamb", "settings": "WT-PKG-1α transfected PASMC; SIN-1 500 μM, 48 h", "method": "Pulmonary artery smooth muscle cells (PASMC) were grown on a 10 cm dish to 75% confluence, transfected with WT-PKG-1α or Y247F-PKG-1α cDNA using a Qiagen transfection kit, according to manufacturer's instructions, and incubated at 37° C. for 20 h. […] The cells were then trypsinized, seeded onto a 6-well plate at a density of 2.5×10^4 cells per well, and grown for an additional 4 h in serum-free DMEM growth medium containing 1% FBS and antibiotics. The cells were then treated with or without SIN-1 (500 μM) and allowed to grow at 37° C. in the incubator for an additional 48 h. The cellular proliferation was evaluated by counting the cells with a hemacytometer (Cascade Biologicals™, Portland, Oreg.) after the trypsinization of the PASMC monolayers.\nPrimary cultures of pulmonary artery smooth muscle cells (PASMC) from 4-week old lambs were isolated by the explant technique, as previously described (Wedgwood, S., et al., Circulation Research 89, 357-364 (2001)). Briefly, a segment of the main pulmonary artery from a 4-week old lamb was excised and placed in a sterile 10 cm dish containing DMEM supplemented with 1 gm/1 glucose. The segment was stripped of adventitia with a sterile forceps. The main pulmonary artery segment was then cut longitudinally to open the vessel, and the endothelial layer was removed by gentle rubbing with a cell scraper. […]"}, "PKG-1α": {"biological_target": "T1, PKG-1α (Homo sapiens, UniProt Q13976)", "T1 sequence (Q13976 2-671)": "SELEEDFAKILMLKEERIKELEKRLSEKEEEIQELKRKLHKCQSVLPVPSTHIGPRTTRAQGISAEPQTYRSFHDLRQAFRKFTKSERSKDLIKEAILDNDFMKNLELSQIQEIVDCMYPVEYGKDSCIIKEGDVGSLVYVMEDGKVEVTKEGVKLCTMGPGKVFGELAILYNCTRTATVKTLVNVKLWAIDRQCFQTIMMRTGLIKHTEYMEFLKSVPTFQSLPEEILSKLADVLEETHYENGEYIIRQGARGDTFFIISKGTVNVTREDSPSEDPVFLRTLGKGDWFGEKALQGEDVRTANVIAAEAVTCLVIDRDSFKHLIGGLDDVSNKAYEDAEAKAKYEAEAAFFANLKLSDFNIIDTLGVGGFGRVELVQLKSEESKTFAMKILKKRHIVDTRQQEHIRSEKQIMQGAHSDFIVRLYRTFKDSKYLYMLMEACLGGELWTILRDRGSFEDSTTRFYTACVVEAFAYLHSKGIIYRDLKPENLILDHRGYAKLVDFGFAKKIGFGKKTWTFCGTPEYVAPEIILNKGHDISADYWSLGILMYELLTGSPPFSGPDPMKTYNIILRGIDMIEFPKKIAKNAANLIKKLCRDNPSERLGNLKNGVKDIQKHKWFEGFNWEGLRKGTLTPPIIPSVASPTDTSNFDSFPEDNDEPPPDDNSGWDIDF", "assay": "PKG activity in transfected PASMC", "type": "cell-based, lamb", "parameters": "an expression plasmid containing a full length WT-PKG-1α cDNA; expressed in transfected cells; host or cells: primary pulmonary artery smooth muscle cells (PASMC) from 4-week old lambs", "settings": "PASMC transfected with WT-PKG-1α; SIN-1 500 μM, 48 h", "method": "Therefore, the effect of these events were investigated in PASMC transiently transfected with expression plasmids containing WT- and Y247F-PKG-1α. The effect of nitration on pulmonary arterial smooth muscle cell (PASMC) growth and metabolism was determined. PASMC were transiently transfected with expression plasmids containing WT-PKG-1α, Y247F-PKG-1α or pDEST40 (as a control) for 20 h. Cells were then exposed or not to SIN-1 (500 μM, 48 h) and the effect on PKG protein levels (FIG. 2A) and activity determined (FIG. 2B).\nTotal PKG activity was determined using a non-radioactive immunoassay in cell lysates, according to the manufacturer's directions. Briefly, protein samples were diluted in kinase reaction buffer containing Mg^2+ and ATP (125 μM) in the presence or absence of 8-Br cGMP (10 μM) and incubated in a 96 well plate pre-coated with a PKG substrate containing threonine residues phosphorylated by PKG.\nAfter incubation for 30 min at 30° C. to allow the phosphorylation of the bound substrate, an HRP conjugated anti-phosphothreonine specific antibody was added to convert a chromogenic substrate to a colorimetric substrate that was subsequently read spectrophotometrically at 450 nm. The change in absorbance reflected the relative activity of PKG in the sample. […] The kinetic constants were determined using nonlinear regression (curve fit) analysis (GraphPad Prism Software Inc.)."}}, "data": [{"substance": "3-morpholinosydnonimine N-ethylcarbamide [SIN-1]", "values": [{"measurement": "proliferation", "setting": "[1]", "result": "stimulated"}, {"measurement": "cGMP dependent increase in PKG activity", "setting": "PKG-1α", "result": "attenuated"}]}]}
